Experiment: xn = mol fraction of the nth substance listed

ClC(Cl)=C(Cl)Cl + CC(C)O
Conditions	viscosity [mPa·s]
298.15 K, 101.3 kPa, x1 = 0.0763	1.855
298.15 K, 101.3 kPa, x1 = 0.6349	1.025
303.15 K, 101.33 kPa, x1 = 0.1028	1.473
303.15 K, 101.33 kPa, x1 = 0.2072	1.251
303.15 K, 101.33 kPa, x1 = 0.307	1.102
303.15 K, 101.33 kPa, x1 = 0.3926	1.007
303.15 K, 101.33 kPa, x1 = 0.5027	0.92
303.15 K, 101.33 kPa, x1 = 0.6105	0.864
303.15 K, 101.33 kPa, x1 = 0.6982	0.838
303.15 K, 101.33 kPa, x1 = 0.7882	0.823
303.15 K, 101.33 kPa, x1 = 0.8976	0.814

O=[N+]([O-])c1ccccc1 + CCC(C)=O
303.15 K, 101 kPa
Conditions	viscosity [mPa·s]
x2 = 0.1487	1.32
x2 = 0.3244	1.039
x2 = 0.4126	0.925
x2 = 0.4992	0.82
x2 = 0.7145	0.607
x2 = 0.78	0.55

CC(C)CCl + CCC(C)O
viscosity [mPa·s], 101.33 kPa
Conditions	x1 = 0.1077	x1 = 0.2064	x1 = 0.3079	x1 = 0.4066	x1 = 0.5036	x1 = 0.648	x1 = 0.7018	x1 = 0.805	x1 = 0.8972
298.15 K	1.946	1.381	1.046	0.8335	0.7002	0.5685	0.5343	0.4815	0.4478
313.15 K	1.254	0.9644	0.7565	0.6299	0.5461	0.4591	0.4357	0.4015	0.3778

ClC(Cl)=C(Cl)Cl + CCC(C)O
viscosity [mPa·s]
Conditions	x1 = 0.1024	x1 = 0.213	x1 = 0.3172	x1 = 0.4016	x1 = 0.5142	x1 = 0.6125	x1 = 0.7018	x1 = 0.7817	x1 = 0.8032	x1 = 0.9108
298.15 K, 101.3 kPa	–	–	–	–	–	–	–	1.005	–	–
303.15 K, 101.33 kPa	1.918	1.508	1.263	1.127	1.005	0.93	0.884	–	0.852	0.822

O=[N+]([O-])c1ccccc1 + CCC(C)O
viscosity [mPa·s], 100 kPa
Conditions	x1 = 0.081	x1 = 0.16	x1 = 0.24	x1 = 0.35	x1 = 0.4949	x1 = 0.56	x1 = 0.65	x1 = 0.74	x1 = 0.8205	x1 = 0.9399
293.15 K	3.138	2.694	2.349	2.041	1.854	1.838	1.859	1.915	1.975	2.078
298.15 K	2.591	2.246	1.983	1.74	1.619	1.612	1.647	1.719	1.78	1.861
303.15 K	2.232	1.989	1.801	1.632	1.528	1.521	1.539	1.58	1.638	1.708
308.15 K	1.905	1.731	1.598	1.476	1.408	1.405	1.422	1.459	1.498	1.577
313.15 K	1.627	1.489	1.384	1.289	1.248	1.252	1.275	1.32	1.379	1.457
318.15 K	1.411	1.309	1.233	1.169	1.147	1.155	1.18	1.224	1.274	1.351
323.15 K	1.233	1.159	1.104	1.058	1.044	1.055	1.081	1.122	1.168	1.253

CCCCCCCCCCCCCC + CCCC(C)O
viscosity [mPa·s], 101.33 kPa
Conditions	x1 = 0.0999	x1 = 0.2002	x1 = 0.3001	x1 = 0.3987	x1 = 0.5009	x1 = 0.6004	x1 = 0.6996	x1 = 0.8014	x1 = 0.9002
293.15 K	2.923	2.557	2.314	2.191	2.117	2.1	2.114	2.141	2.177
303.15 K	2.381	2.111	1.928	1.823	1.752	1.741	1.748	1.76	1.787
313.15 K	1.742	1.58	1.476	1.41	1.391	1.392	1.41	1.441	1.472
323.15 K	1.362	1.266	1.192	1.152	1.148	1.153	1.171	1.21	1.24

O=[N+]([O-])c1ccccc1 + CCCC(C)O
viscosity [mPa·s], 100 kPa
Conditions	x1 = 0.081	x1 = 0.1601	x1 = 0.24	x1 = 0.35	x1 = 0.4401	x1 = 0.56	x1 = 0.6503	x1 = 0.7402	x1 = 0.8504	x1 = 0.9404
293.15 K	3.323	2.827	2.444	2.095	1.931	1.863	1.867	1.914	1.999	2.054
298.15 K	2.753	2.364	2.068	1.809	1.697	1.67	1.684	1.738	1.821	1.878
303.15 K	2.317	2.016	1.794	1.598	1.517	1.503	1.523	1.579	1.66	1.718
308.15 K	1.993	1.776	1.608	1.454	1.385	1.36	1.377	1.421	1.497	1.568
313.15 K	1.711	1.545	1.417	1.301	1.249	1.239	1.259	1.302	1.378	1.451
318.15 K	1.497	1.375	1.28	1.188	1.148	1.135	1.15	1.188	1.26	1.338
323.15 K	1.311	1.227	1.159	1.089	1.055	1.044	1.057	1.091	1.16	1.238
